# Values joined by “and” are separate entries in the source; they are usually repeats but may differ in a detail not shown here. Equal entries are not always repeated.
# Test system: Scottish men with hypercholesterolemia (WOSCOPS)
# Assay: WOSCOPS nested case-control: coronary events under pravastatin vs placebo by genotype (Tables 11, 13, 15)
# Format: in vivo, human
# Settings: for Pravastatin Patients (%) / Pravastatin Patients n/total: WM
# Description: Additionally, genetic markers identified as associated with acute coronary events or response to statin treatment for the prevention of coronary events in the CARE samples were also genotyped in a second sample set, the West of Scotland Coronary Prevention Study (WOSCOPS) sample set. […] Participants in the WOSCOPS study were 45-64 years of age and followed for an average of 4.9 years for coronary events. […] Controls were 1160 age and smoking status-matched unaffected patients. All individuals included in the study had signed a written informed consent form and the study protocol was approved by IRB s. DNA was extracted and genotyped as described above.
# The data presented in Table 8 based on an association of genotypes with pravastatin efficacy of the CARE samples were further analyzed and presented in Table 13. The further analysis was performed to align the data obtained from the analysis of the CARE samples, which was a prospective study, to the analysis of the WOSCOP samples, which was a case/control study. Table 13 also presents an analysis of the association of genotypes with pravastatin efficacy in the WOSCOPs samples. Relative to the analysis performed on the data presented in Table 8, there are two significant differences to determine if the SNP influenced pravastatin efficacy. Data obtained from the CARE samples were separated by study design into two groups, those in the prospective study design group and those in the case/control study design group. The original care study contained 16 protocol defined cardiovascular disease defined endpoints and 150 other phenotypes. […] The control groups used to compare the data were also divided into two groups, the “all possible” control group and the “cleaner” control group. […] Because the participants in the WOSCOPs trial were all white males, only data obtained from white males in the CARE study were analysed. […] The data from the case/control cohorts were analysed using conditional logistic regression (as opposed to logistic regression used for the original anaylsis).
# The anaylsis was refined as described for both Tables 13 and 14.
# [1] = CAPN2 hCV781558, WOSCOPS (W) Case/Control, F&NF MI, listed as Pravastatin
# [2] = CAPN2 hCV781558, WOSCOPS, Case/Control, F MI/SD/NF MI, listed as Pravastatin
# [3] = CCL11 hCV7449808, WOSCOPS (W) Case/Control, F&NF MI
# [4] = CCL11 hCV7449808, WOSCOPS, Case/Control, F MI/SD/NF MI
# [5] = COL6A2 hCV2811372, WOSCOPS, Case/Control, F MI/SD/NF MI
# [6] = COL6A2 hCV2811372, WOSCOPS, Case/Control, F MI/SD/NF MI, listed as Pravastatin
# [7] = DDEF1 hCV7686234, WOSCOPS (W) Case/Control, F&NF MI
# [8] = FGB hCV7429784, WOSCOPS, Case/Control, F MI/SD/NF MI
# [9] = GAPD hCV8921288, WOSCOPS (W) Case/Control, F&NF MI
# [10] = GAPD hCV8921288, WOSCOPS, Case/Control, F MI/SD/NF MI
# [11] = HRC hCV11506744, 0 Rare Alleles, WOSCOPS Case/Control, F&NF MI, All Possible controls
# [12] = HRC hCV11506744, 0 Rare Alleles, WOSCOPS Case/Control, F&NF MI, Cleaner controls
# [13] = HRC hCV11506744, 1 Rare Allele, WOSCOPS Case/Control, F&NF MI, All Possible controls
# [14] = HRC hCV11506744, 1 Rare Allele, WOSCOPS Case/Control, F&NF MI, Cleaner controls
# [15] = HRC hCV11506744, WOSCOPS Case/Control, F&NF MI
# [16] = HRC hCV11506744, WOSCOPS, Case/Control, F MI/SD/NF MI, listed as Pravastatin
# [17] = IL1A hCV9546471, 0 Rare Alleles, WOSCOPS Case/Control, F&NF MI, All Possible controls
# [18] = IL1A hCV9546471, 1 Rare Allele, WOSCOPS Case/Control, F&NF MI, All Possible controls
# [19] = IL1A hCV9546471, WOSCOPS Case/Control, F&NF MI
# [20] = IL1A hCV9546471, WOSCOPS, Case/Control, F MI/SD/NF MI
# [21] = LRP3 hCV25594815, 0 Rare Alleles, WOSCOPS Case/Control, F&NF MI, All Possible controls
# [22] = LRP3 hCV25594815, 0 Rare Alleles, WOSCOPS Case/Control, F&NF MI, Cleaner controls
# [23] = LRP3 hCV25594815, 1 Rare Allele, WOSCOPS Case/Control, F&NF MI, All Possible controls
# [24] = LRP3 hCV25594815, 1 Rare Allele, WOSCOPS Case/Control, F&NF MI, Cleaner controls
# [25] = LRP3 hCV25594815, WOSCOPS Case/Control, F&NF MI
# [26] = LRP3 hCV25594815, WOSCOPS, Case/Control, F MI/SD/NF MI
# [27] = PON1 hCV2548962, 0 rare alleles, WOSCOPS Case/Control, Fatal & Nonfatal MI, Cleaner controls, White Males
# [28] = PON1 hCV2548962, 1 rare allele, WOSCOPS Case/Control, Fatal & Nonfatal MI, Cleaner controls, White Males
# [29] = PON1 hCV2548962, 2 rare alleles, WOSCOPS Case/Control, Fatal & Nonfatal MI, Cleaner controls, White Males
# [30] = WOSCOPS, FCAR genotype GG, placebo group as reference, conditional logistic regression
structure (smiles),measurement,setting,value
CC[C@H](C)C(=O)O[C@H]1C[C@H](O)C=C2C=C[C@H](C)[C@H](CC[C@@H](O)C[C@@H](O)CC(=O)O)[C@H]21 [pravastatin],"Pravastatin vs placebo odds ratio, 1 rare allele","CAPN2 hCV781558, WOSCOPS (W) Case/Control, F&NF MI",1.02
same,"2 Rare Alleles n/total, Pravastatin Patients",[1],10/41 and 10/39
same,"Pravastatin vs placebo odds ratio, 0 rare alleles",[1],0.52 and 0.51
same,"Pravastatin vs placebo odds ratio, 1 rare allele",[1],1.07
same,"Pravastatin vs placebo odds ratio, 2 rare alleles",[1],0.46 and 0.38
same,"Pravastatin vs placebo odds ratio, 1 rare allele","CAPN2 hCV781558, WOSCOPS, Case/Control, F MI/SD/NF MI",1.08
same,"Pravastatin vs placebo odds ratio, 0 rare alleles",[2],0.46 and 0.45
same,"Pravastatin vs placebo odds ratio, 1 rare allele",[2],1.03
same,"Pravastatin vs placebo odds ratio, 2 rare alleles",[2],0.56 and 0.43
same,"2 Rare Alleles n/total, Pravastatin Patients",[3],10/24 and 10/22
same,"Pravastatin vs placebo odds ratio, 0 rare alleles",[3],0.67 and 0.65
same,"Pravastatin vs placebo odds ratio, 1 rare allele",[3],0.57 and 0.53
same,"Pravastatin vs placebo odds ratio, 2 rare alleles",[3],6.96 and 7.20
same,"Pravastatin vs placebo odds ratio, 0 rare alleles",[4],0.63 and 0.62
same,"Pravastatin vs placebo odds ratio, 1 rare allele",[4],0.50 and 0.46
same,"Pravastatin vs placebo odds ratio, 2 rare alleles",[4],8.57 and 9.95
same,"Pravastatin vs placebo odds ratio, 0 rare alleles",[5],0.39
same,"Pravastatin vs placebo odds ratio, 2 rare alleles",[5],1.04
same,"Pravastatin vs placebo odds ratio, 1 rare allele",[6],0.62 and 0.59
same,"Pravastatin vs placebo odds ratio, 2 rare alleles",[6],1.09
same,"2 Rare Alleles (%), Pravastatin Patients",[7],(25.1%)
same,"2 Rare Alleles n/total, Pravastatin Patients",[7],42/167
same,"Pravastatin vs placebo odds ratio, 0 rare alleles",[7],0.45
same,"Pravastatin vs placebo odds ratio, 1 rare allele",[7],0.68
same,"Pravastatin vs placebo odds ratio, 2 rare alleles",[7],1.06
same,"2 rare alleles n/total (%), pravastatin patients",[8],(50.0%)
same,"Pravastatin vs placebo odds ratio, 0 rare alleles",[8],0.63
same,"Pravastatin vs placebo odds ratio, 1 rare allele",[8],0.52
same,"Pravastatin vs placebo odds ratio, 2 rare alleles",[8],3.14
same,"2 Rare Alleles n/total, Pravastatin Patients",[9],10/26 and 10/23
same,"Pravastatin vs placebo odds ratio, 0 rare alleles",[9],0.54 and 0.50
same,"Pravastatin vs placebo odds ratio, 1 rare allele",[9],0.99 and 0.98
same,"Pravastatin vs placebo odds ratio, 2 rare alleles",[9],1.51 and 1.90
same,"Pravastatin vs placebo odds ratio, 0 rare alleles",[10],0.50 and 0.46
same,"Pravastatin vs placebo odds ratio, 1 rare allele",[10],0.88 and 0.89
same,"Pravastatin vs placebo odds ratio, 2 rare alleles",[10],1.56 and 1.92
same,Pravastatin Patients (%),[11],(23.3%)
same,Pravastatin Patients n/total,[11],59/253
same,Pravastatin Patients (%),[12],(25.2%)
same,Pravastatin Patients n/total,[12],59/234
same,Pravastatin Patients (%),[13],(18.0%)
same,Pravastatin Patients n/total,[13],65/361
same,Pravastatin Patients (%),[14],(19.2%)
same,Pravastatin Patients n/total,[14],65/338
same,"2 Rare Alleles (%), Pravastatin Patients",[15],(27.6%)
same,"2 Rare Alleles n/total, Pravastatin Patients",[15],35/127 and 35/118
same,"Pravastatin vs placebo odds ratio, 0 rare alleles",[15],0.84 and 0.80
same,"Pravastatin vs placebo odds ratio, 1 rare allele",[15],0.49 and 0.46
same,"Pravastatin vs placebo odds ratio, 2 rare alleles",[15],1.08
same,"Pravastatin vs placebo odds ratio, 2 rare alleles","HRC hCV11506744, WOSCOPS, Case/Control, F MI/SD/NF MI",1.04
same,"Pravastatin vs placebo odds ratio, 0 rare alleles",[16],0.85 and 0.80
same,"Pravastatin vs placebo odds ratio, 1 rare allele",[16],0.41 and 0.39
same,"Pravastatin vs placebo odds ratio, 2 rare alleles",[16],1.05
same,Pravastatin Patients (%),[17],(20.8%)
same,Pravastatin Patients n/total,[17],77/370
same,Pravastatin Patients (%),[18],(24.2%)
same,Pravastatin Patients n/total,[18],74/306
same,"2 Rare Alleles (%), Pravastatin Patients",[19],(18.3%)
same,"2 Rare Alleles n/total, Pravastatin Patients",[19],11/60
same,"Pravastatin vs placebo odds ratio, 0 rare alleles",[19],0.52
same,"Pravastatin vs placebo odds ratio, 1 rare allele",[19],0.95
same,"Pravastatin vs placebo odds ratio, 2 rare alleles",[19],0.95
same,"Pravastatin vs placebo odds ratio, 0 rare alleles",[20],0.46 and 0.45
same,"Pravastatin vs placebo odds ratio, 1 rare allele",[20],0.91 and 0.85
same,"Pravastatin vs placebo odds ratio, 2 rare alleles",[20],0.94 and 0.98
same,Pravastatin Patients (%),[21],(24.1%)
same,Pravastatin Patients n/total,[21],133/552
same,Pravastatin Patients (%),[22],(26.1%)
same,Pravastatin Patients n/total,[22],133/509
same,Pravastatin Patients (%),[23],(14.5%)
same,Pravastatin Patients n/total,[23],25/172
same,Pravastatin Patients (%),[24],(15.2%)
same,Pravastatin Patients n/total,[24],25/164
same,"2 Rare Alleles (%), Pravastatin Patients",[25],(27.3%)
same,"2 Rare Alleles n/total, Pravastatin Patients",[25],3/11
same,"Pravastatin vs placebo odds ratio, 0 rare alleles",[25],0.82 and 0.80
same,"Pravastatin vs placebo odds ratio, 1 rare allele",[25],0.33 and 0.31
same,"Pravastatin vs placebo odds ratio, 2 rare alleles",[25],1.46 and 1.21
same,"2 rare alleles n/total (%), pravastatin patients",[26],(27.3%)
same,"Pravastatin vs placebo odds ratio, 0 rare alleles",[26],0.76 and 0.75
same,"Pravastatin vs placebo odds ratio, 1 rare allele",[26],0.29 and 0.26
same,"Pravastatin vs placebo odds ratio, 2 rare alleles",[26],2.40 and 1.80
same,"Pravastatin vs. Placebo Odds Ratio (95% CI), Patients with 0 Rare Alleles",[27],0.84 (0.60 to 1.16)
same,"n/total (%) cases, Pravastatin Patients, 0 Rare Alleles",[27],88/344 (25.6%)
same,"Pravastatin vs. Placebo Odds Ratio (95% CI), Patients with 1 Rare Allele",[28],0.58 (0.40 to 0.84)
same,"n/total (%) cases, Pravastatin Patients, 1 Rare Allele",[28],65/282 (23.1%)
same,"Pravastatin vs. Placebo Odds Ratio (95% CI), Patients with 2 Rare Alleles",[29],0.34 (0.14 to 0.82)
same,"n/total (%) cases, Pravastatin Patients, 2 Rare Alleles",[29],9/53 (17.0%)
same,"RR or OR of adverse coronary event, pravastatin vs placebo","WOSCOPS, CD6 hCV2553030, homozygous for the minor allele",0.23
same,OR (odds ratio) of MI associated with Pravastatin,"WOSCOPS, CD6 hCV2553030 genotype Het (TC)",0.71
same,OR (odds ratio) of MI associated with Pravastatin,"WOSCOPS, CD6 hCV2553030 genotype Major hom (CC)",0.66
same,OR (odds ratio) of MI associated with Pravastatin,"WOSCOPS, CD6 hCV2553030 genotype Minor hom (TT)",0.23
same,OR (odds ratio) of MI associated with Pravastatin,"WOSCOPS, CD6 hCV2553030 recessive (TT)",0.23
same,OR (odds ratio) of MI associated with Pravastatin,WOSCOPS; CD6 hCV2553030 recessive TC + CC)ref,0.68
same,"OR of MI associated with Pravastatin, first of two OR sets printed",[30],0.66
same,"OR of MI associated with Pravastatin, second of two OR sets printed",[30],0.65

# — US9932637B2, “Genetic polymorphisms associated with cardiovascular disorders and drug response, methods of detection and uses thereof” (CELERA CORPORATION, priority 2003, dated 2018)
